Data on five molecules can be found in patent US20200254014A1, “ANTIMICROBIAL COMPOSITIONS AND METHODS FOR THEIR PRODUCTION” (National University of Ireland, Galway, priority 2013, published 2020).

For assay [1], the system named is E. coli ATCC 25922. The experiment in a line: MIC of iodine based antimicrobials in absence and presence of organic material. The format is cell-based. From the text: As a comparison, PVP-1 or povidone iodine, used frequently in hospital setting as a topical antiseptic, was used as a source of free iodine (12).
Assay [2] has as its system E. coli ATCC 25922. Type of assay: cell-based. As for the experimental part: In an attempt to induce a tolerance to an antimicrobial, the micro-broth dilution method was utilised, with repeated passaging, with E. coli ATCC 25922 and a number of antibiotics, as well as the composition of the invention containing hydrogen peroxide and potassium iodide. […] Doubling dilutions of antimicrobial compositions were made using a 96 well plate. The well contents were inoculated with 10^4 cfu ml^−1 E. coli ATCC 25922 and allowed to incubate.

The next assay concerns S. aureus BH1CC (MRSA). The settings on record: strain isolated from Beaumont hospital; cited from earlier work.

Some results are limits rather than exact numbers.

In the case of `OO` [Example H2O2, hydrogen peroxide], the “MIC” value with E. coli ATCC 25922 [1] (broth) lay within 20 to 40 µg/mL.

Turning to `C[C@H]1COc2c(N3CCN(C)CC3)c(F)cc3c(=O)c(C(=O)O)cn1c23` [levofloxacin], in the assay on E. coli ATCC 25922 [2] (after 10 passages), the “increase in tolerance versus pre-passaging” value was found to be 8 times.

On to `Cc1onc(-c2ccccc2)c1C(=O)N[C@@H]1C(=O)N2[C@@H]1SC(C)(C)[C@@H]2C(=O)O` [oxacillin], for which the “oxacillin MIC” value in the assay with S. aureus BH1CC (MRSA) is greater than 256 µg/mL.

Regarding polymyxin B, the “resistance of the organism after passaging in presence of the antibiotic” value with E. coli ATCC 25922 [2] (after only 8 passages) is on record as “completely resistant”.

Regarding “polyvinylpyrrilidone, PVP-I, also known as povidone-iodine”, the “MIC” value was greater than 250 µg/mL with E. coli ATCC 25922 [1] (in LB), greater than 250 µg/mL in the assay with E. coli ATCC 25922 [1] (milk) and 1 to 2 µg/mL with E. coli ATCC 25922 [1] (saline).
